Data from the NIST ThermoML archive (doi:10.1021/je200628n).
± gives the expanded uncertainty stated by the source.

Test: activity coefficient (dimensionless); of the first substance listed, at infinite dilution; xn = mol fraction of the nth substance listed
Conditions: 101 kPa, Liquid, Chromatography, x1 = 0

| Compound | activity coefficient (348.25 K) | activity coefficient (353.15 K) | activity coefficient (358.25 K) | activity coefficient (363.21 K) | activity coefficient (328.15 K) | activity coefficient (338.15 K) | activity coefficient (343.15 K) | activity coefficient (348.15 K) | also measured |
| --- | --- | --- | --- | --- | --- | --- | --- | --- | --- |
| CCCCCCC [heptane] + NCCCCCCCCCCCCN | 5.21 ± 0.27 | 5.13 ± 0.26 | 5.04 ± 0.26 | 4.97 ± 0.26 |  |  |  |  |  |
| CCCCC [pentane] + NCCCCCCCCCCCCN | 4.76 ± 0.24 | 4.74 ± 0.24 | 4.68 ± 0.24 | 4.63 ± 0.24 |  |  |  |  |  |
| CCOCC [diethyl ether] + NCCCCCCCCN |  |  |  |  | 3.52 ± 0.18 | 3.4 ± 0.17 | 3.37 ± 0.17 | 3.36 ± 0.17 |  |
| C=CCCCCCCCC [1-decene] + NCCCCCCCCN |  |  |  |  | 4.24 ± 0.22 | 3.58 ± 0.18 | 3.33 ± 0.17 | 3.14 ± 0.16 |  |
| CCCCC [pentane] + NCCCCCCCCCCN |  |  |  |  |  |  |  |  | activity coefficient (3.9 K): 353 ± 18; activity coefficient (4.022 K): 348 ± 18; activity coefficient (4.331 K): 338 ± 18 |
| CCCCCCCl [1-chlorohexane] + NCCCCCCCCN |  |  |  |  | 3.85 ± 0.2 | 2.73 ± 0.14 | 2.38 ± 0.12 | 2.02 ± 0.1 |  |
| CCCCCCCCCC [decane] + NCCCCCCCCCCN |  |  |  |  |  |  |  | 5.03 ± 0.26 | activity coefficient (338.2 K): 5.59 ± 0.29; activity coefficient (353.22 K): 4.78 ± 0.25 |
| C=CCCCCCC [oct-1-ene] + NCCCCCCCCCCCCN | 4.83 ± 0.25 | 4.53 ± 0.23 | 4.33 ± 0.22 | 4.11 ± 0.21 |  |  |  |  |  |
| C=CCCCC [hex-1-ene] + NCCCCCCCCCCN |  |  |  |  |  |  |  | 3.06 ± 0.16 | activity coefficient (338.2 K): 3.37 ± 0.17; activity coefficient (353.22 K): 2.92 ± 0.15 |
| CCOC(C)=O [ethyl acetate] + NCCCCCCCCN |  |  |  |  | 1.08 ± 0.048 | 0.954 ± 0.042 | 0.902 ± 0.041 | 0.855 ± 0.039 |  |
| CCCCC [pentane] + NCCCCCCCCN | 1.16 ± 0.053 |  |  |  |  |  |  |  | activity coefficient (328.21 K): 1.37 ± 0.065; activity coefficient (338.23 K): 1.27 ± 0.059; activity coefficient (343.19 K): 1.22 ± 0.056 |
| CCO [ethanol] + NCCCCCCCCCCCCN | 0.828 ± 0.039 | 0.891 ± 0.04 | 0.952 ± 0.042 | 1.03 ± 0.045 |  |  |  |  |  |
| CCCCCCCC [octane] + NCCCCCCCCCCN |  |  |  |  |  |  |  | 4.79 ± 0.25 | activity coefficient (338.2 K): 5.24 ± 0.27; activity coefficient (353.22 K): 4.55 ± 0.23 |
| c1ccccc1 [benzene] + NCCCCCCCCCCCCN | 2.08 ± 0.11 | 2.07 ± 0.11 | 2.06 ± 0.1 | 2.04 ± 0.1 |  |  |  |  |  |
| CCc1ccccc1 [ethylbenzene] + NCCCCCCCCCCN |  |  |  |  |  |  |  | 1.78 ± 0.089 | activity coefficient (338.2 K): 1.97 ± 0.1; activity coefficient (353.22 K): 1.72 ± 0.085 |
| C=CCCCC [hex-1-ene] + NCCCCCCCCN |  |  |  |  | 3.18 ± 0.16 | 2.94 ± 0.15 | 2.85 ± 0.15 | 2.77 ± 0.14 |  |
| CCOC(C)=O [ethyl acetate] + NCCCCCCCCCCN |  |  |  |  |  |  |  | 0.951 ± 0.042 | activity coefficient (338.2 K): 1.16 ± 0.053; activity coefficient (353.22 K): 0.868 ± 0.04 |
| CCCCCCCCCC [decane] + NCCCCCCCCCCCCN | 6.11 ± 0.31 | 5.89 ± 0.3 | 5.74 ± 0.29 | 5.6 ± 0.29 |  |  |  |  |  |
| CCCO [propan-1-ol] + NCCCCCCCCCCCCN | 0.931 ± 0.042 | 0.975 ± 0.043 | 1.04 ± 0.046 | 1.09 ± 0.049 |  |  |  |  |  |
| CCCO [propan-1-ol] + NCCCCCCCCN |  |  |  |  | 0.567 ± 0.032 | 0.58 ± 0.032 | 0.593 ± 0.032 | 0.614 ± 0.033 |  |
| CCCCCCC [heptane] + NCCCCCCCCN |  |  |  |  | 4.36 ± 0.22 | 4.09 ± 0.21 | 4 ± 0.2 | 3.95 ± 0.2 |  |
| CCOCC [diethyl ether] + NCCCCCCCCCCCCN | 4.45 ± 0.23 | 4.37 ± 0.22 | 4.33 ± 0.22 | 4.25 ± 0.22 |  |  |  |  |  |
| CCCCCC [hexane] + NCCCCCCCCN |  |  |  |  | 4.03 ± 0.21 | 3.83 ± 0.2 | 3.75 ± 0.19 | 3.72 ± 0.19 |  |
| CCCCO [butan-1-ol] + NCCCCCCCCCCCCN | 1.07 ± 0.048 | 1.1 ± 0.049 | 1.12 ± 0.051 | 1.16 ± 0.053 |  |  |  |  |  |
| C=CCCC [1-pentene] + NCCCCCCCCCCN |  |  |  |  |  |  |  | 2.98 ± 0.15 | activity coefficient (338.2 K): 3.23 ± 0.17; activity coefficient (353.22 K): 2.88 ± 0.15 |
| Cc1ccccc1 [toluene] + NCCCCCCCCCCCCN | 2.6 ± 0.13 | 2.51 ± 0.13 | 2.42 ± 0.12 | 2.33 ± 0.12 |  |  |  |  |  |
| C=CCCCCC [1-heptene] + NCCCCCCCCN |  |  |  |  | 3.59 ± 0.18 | 3.21 ± 0.17 | 3.03 ± 0.15 | 2.93 ± 0.15 |  |
